# Values of other authors in patent publication US20070003615A1, “Nanoparticulate clopidogrel and aspirin combination formulations” (Elan Pharma International Limited, priority 2005, published 2007).
# Where a name gives a salt, the structure may show the parent alone. Read-outs that look alike come from different tables or passages of the source.
# Columns and labels:
# [1] = dry air versus contact with moisture
# [2] = not given; remark: listed apart in the source
# [3] = in vivo
smiles,measurement,setting,value
"CC(=O)Oc1ccccc1C(=O)O [Aspirin, 2-acetoxybenzoic acid]",stability in air / moisture,[1],"stable in dry air, but gradually hydrolyses in contact with moisture"
"COC(=O)[C@H](c1ccccc1Cl)N1CCc2sccc2C1 [Clopidogrel bisulfate, methyl (+)-(S)-α-(2-chorophenyl)-6,7-dihydrothieno[3,2-c]pyridine-5(4H)-acetate sulfate (1:1)]",solubility in ethyl ether,ethyl ether,practically insoluble
same,solubility in methanol,methanol,dissolves freely
same,solubility in methylene chloride,methylene chloride,dissolves sparingly
same,solubility at pH 1.0,pH 1.0,freely soluble
same,solubility in water,water at neutral pH,practically insoluble
same,"rate of combined end point of cardiovascular death, MI, or stroke (and with refractory ischemia)",[2]; patients with acute coronary syndrome,decrease the rate
same,"rate of combined end point of new ischemic stroke, new MI, and other vascular death","[2]; recent MI, recent stroke, or established arterial disease",reduce the rate
same,gastric irritation (esophagus and stomach),[3],significant gastric irritation
COC(=O)[C@H](c1ccccc1Cl)N1CCc2sccc2C1 [clopidogrel],solubility in water,"water, pH not stated",practically insoluble
